Reference: PubChem BioAssay AID434987 (Southern Research Specialized Biocontainment Screening …, 2010)
The source made the active and inactive calls. How the calls were made is not given here.

System: M. tuberculosis H37Rv growth inhibition with meropenem
Test: dose response, H37Rv, with and without meropenem (AID 434987);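 further: growth over 7 days at 37 °C before Alamar Blue read on day 9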
[1] = M. tuberculosis H37Rv growth inhibition, measured here: IC50 without meropenem
[2] = M. tuberculosis H37Rv growth inhibition, measured here: IC90 without meropenem
[3] = measured here: IC90 with meropenem

Row | SMILES | IC50 | IC50 [1] [µM] | IC90 [2] [µM] | IC90 [3] [µM]
1 | N#CC1=C2C=Cc3ccccc3N2CCCC1=O | 21.6 µM | 93.3 | > 100 | > 100
2 | CC/C(=N\NC(=O)c1ccc(N(C)C)cc1)c1ccccc1 | > 100 µM (inactive) | > 100 | > 100 | > 100
3 | Cc1ccc(SCc2c(-c3ccccc3)nn(C)c2Cl)cc1 | 20.9 µM | 58.7 | > 100 | > 100
4 | COc1cccc(NC(=O)c2cc(-c3cccnc3)nc3c(Cl)cccc23)c1 | > 100 µM (inactive) | > 100 | > 100 | > 100
5 | Cc1cccc(CSc2nnc(C)c(=O)n2N)c1 | 5.94 µM (inactive) | 12.4 | 20.9 | 9.9
6 | O=C(N/N=C/c1cccc(NC(=O)c2ccc(Cl)cc2)c1)c1cccc(O)c1 | > 100 µM (inactive) | > 100 | > 100 | > 100
7 | CC1CCc2nc(NC(=O)C3COc4ccccc4O3)sc2C1 (configuration not stated) | 26.2 µM (inactive) | 51.9 | > 100 | > 100
8 | COc1ccc2nc(NC(=O)c3ccc(Br)s3)sc2c1 | > 100 µM (inactive) | > 100 | > 100 | > 100
9 | CCN1C(=O)[C@@H]2[C@@H](c3ccc(-c4ccc(Cl)c(Cl)c4)c(OC)c3)N3CCC[C@@]3(C(=O)OC)[C@@H]2C1=O | > 100 µM (inactive) | > 100 | > 100 | > 100
10 | COCc1nnc(NC(=O)c2ccc(S(=O)(=O)N(C)c3ccccc3)cc2)o1 | 17.4 µM (inactive) | 40.3 | > 100 | > 100
11 | Cc1c(C=O)c(C=O)c(C)n1Cc1ccccc1 | 31.9 µM (inactive) | 52 | > 100 | 69.3
12 | CCOC(=O)Cn1c(C)cc(=O)c2cccc(C)c21 | 26.4 µM | > 100 | > 100 | > 100
13 | CSc1ccccc1C(=O)Nc1ccc2c(c1)OCCO2 | 35.4 µM (inactive) | 80.5 | > 100 | > 100
14 | CCCc1cc(C(=O)Nc2ccc(C(C)=O)cc2)no1 | 11.7 µM (inactive) | 24.4 | > 100 | 48.8
15 | Cc1nc(Nc2ccc(Cl)cc2Cl)sc1C(=O)Nc1ccccc1 | > 100 µM (inactive) | > 100 | > 100 | > 100
16 | Cc1oc(C(C)(C)C)cc1C(=O)Nc1ccc2c(c1)OCCO2 | > 100 µM (inactive) | > 100 | > 100 | > 100
17 | CCN(CC)C(=O)C1CCCN(c2ccc([N+](=O)[O-])cc2/C=N/NC(=O)c2cccc(O)c2)C1 (configuration not stated) | 48.1 µM (inactive) | 47.1 | 70.6 | 55.3
18 | O=C(COC(=O)C1=COCCO1)Nc1ccc2c(c1)OCO2 | 3.86 µM | 50 | > 100 | > 100
19 | CCC1CCCCN1C(=O)CSc1nnc(-c2ccc(Cl)s2)o1 (configuration not stated) | > 100 µM (inactive) | > 100 | > 100 | > 100
20 | c1ccc(-c2n[nH]c3c2CCC3)cc1 | 3.73 µM | 14.4 | 32.4 | 46.3
21 | O=C(Nc1ccccc1Br)c1cccc2ccccc12 | > 100 µM (inactive) | > 100 | > 100 | > 100
22 | COc1ccc(OC(=O)c2cccc([N+](=O)[O-])c2)c(C(=O)/C=C/c2cccs2)c1 | 27.5 µM | 68.3 | > 100 | > 100
23 | COc1ccc2c(c1)c(C(C)=O)c(C)n2-c1ccccc1 | 0.336 µM | > 100 | > 100 | 6.92
